These results are taken from patent US6867210B2, “Aryl substituted pyrimidines” (Euro-Celtique S.A., priority 2000, dated 2005).

Series [1] deals with maximal electroshock-induced seizures (MES). Briefly: Maximum electroshock seizure test (MES), anticonvulsant evaluation. To be noted: Mus musculus, mice. It counts as in vivo. The source says:
The compounds of the present invention may be tested for in vivo anticonvulsant activity after i.v., p.o. or i.p. injection using a number of anticonvulsant tests in mice, including the maximum electroshock seizure test (MES). Maximum electroshock seizures were induced in male NSA mice weighing between 15-20 g and male Sprague-Dawley rats weighing between 200-225 g by application of current (50 mA, 60 pulses/sec, 0.8 msec pulse width, 1 sec duration, D.C., mice; 99 mA, 125 pulses/sec, 0.8 msec pulse width, 2 sec duration, D.C., rats) using a Ugo Basile ECT device (Model 7801). Mice were restrained by gripping the loose skin on their dorsal surface and saline-coated corneal electrodes were held lightly against the two corneae. Rats were allowed free movement on the bench top and ear-clip electrodes were used. […] A tonic seizure was defined as a hindlimb extension in excess of 90 degrees from the plane of the body. Results were treated in a quantal manner.
The ability of 4-[4-(4-fluorophenoxy)phenyl]-pyrimidine-2-carboxamide to block maximal electroshock-induced seizures (MES) was determined according to the method above.
4-[4-(4-Fluorophenoxy)phenyl]-pyrimidine-2-carboxamide was administered p.o. to mice 30 minutes before the test procedure.
The following compounds on Table 1 were tested accordingly after a p.o. administration and also after an i.v. injection. The compounds were injected i.v. 15 minutes before the test procedure.

Series [2] addresses rBIIA isoform of Na+ channels (Rattus norvegicus, UniProt P04775). The series can be described thus: Electrophysiological Assay 1: patch-clamp of voltage-sensitive Na+ currents in HEK-293 cells. Type of series: cell-based. To be noted: HEK-293 cells stably expressing rBIIA; for Ki: apparent antagonist dissociation constant for inactivated sodium channels. Here is the method:
Cell preparation: HEK-293 (NaIIA-B2) cell line stably expressing the rBIIA isoform of Na^+ channels was established in-house. The cells were cultured using standard techniques, as described previously (Verdoom, T. A, et al., Neuron 4:919-928 (1990)). For electrophysiology, cells were plated onto poly-D-lysine pre-coated Cellware 35 mm Petri dishes (BIOCOAT, Becton Dickinson) at a density of ˜10^4 cells/dish on the day of re-seeding from confluent cultures. Our experience has been that cells are suitable for recordings for 2-3 days after plating.
Patch-clamp recordings of voltage-sensitive Na^+ currents: Whole-cell voltage-clamp recordings were made using conventional patch-clamp techniques (Hamill et al., Pfluegers Arch. 391:85-100 (1981)) with an Axopatch 200A amplifier (Axon Instruments, Foster City, Calif.). The recording chamber was continuously superfused with the external solution (150 mM NaCl, 5.4 mM KCl, 1.8 mM CaCl2, 1 mM MgCl2, 10 mM HEPES, 10 mM glucose, pH 7.4 adjusted with NaOH, osmolality ˜320 mmol/kg) at a speed of about 1 mL/min. Recording pipettes were pulled from the thick-walled capillaries (WPI, Sarasota, Fla.) and fire-polished. The pipette resistances ranged from 1 to 3 MΩ when the pipettes were filled with internal solution containing (in mM): 130 CsF, 20 NaCl, 2 MgCl2, 10 EGTA, 10 HEPES, pH adjusted to 7.4 with CsOH, osmolality ˜310 mmol/kg. Drugs and intervening wash-outs were applied through a linear array of flow pipes (Drummond Microcaps, 2 μL, 64-mm length). Compounds are dissolved in dimethylsulfoxide (DMSO) to make a 30 mM stock solution, which was subsequently diluted into the external solution to give final concentrations of 0.1-100 μM. At the highest (1%) concentration, DMSO inhibited the size of Na^+ current only slightly. Currents were recorded at room temperature (22-25° C.), filtered at 3 kHz with an active 8-pole Bessel filter (Frequency Devices, Haverhill, Mass.), digitized at 10-50 μs intervals, and stored using Digidata 1200 analog/digital interface with Pclamp6/Clampex software (Axon Instruments). Series resistance was cancelled typically by ˜75% when necessary.
The following voltage pulse protocols A, B, C, and D were used to assess the potency and kinetics of inhibition of the Na^+ channels by the compounds (FIGS. 1A-1D).
Current-voltage relationship (IV-curve), protocol A (FIG. 1A), was used to report the voltage at which the maximal inward Na^+ current is achieved. This voltage was used throughout the experiment as testing voltage, Vt. The steady-state inactivation (or, availability) curve, protocol C (FIG. 1C), was used to get the voltage at which almost complete (≧95%) inactivation of Na^+ channels occurs; it served as voltage for conditioning prepulse, Vc, throughout the experiment. Protocol B (FIG. 1B) reports how fast the channels recover from inactivation at hyperpolarized voltages. This permitted us to set up the duration of the hyperpolarization gap which is used in measurement of the kinetics of binding of compounds to inactivated Na^+ channels (protocol D (FIG. 1D)). Channel repriming under control conditions was fast (≧90% recovery during first 5-10 ms). If a drug substantially retards the repriming process then it becomes possible (protocol D) to accurately measure the kinetics of binding of the inhibitor to inactivated channels as well as the steady-state affinity (k+ and Ki). To estimate k+ values the reduction in peak currents in successive trials with varying pre-pulse duration was plotted as a function of pre-pulse duration and the time constant (τ) measured by mono-exponential fit. A plot of 1/τ as a function of antagonist concentration then allowed calculating of the macroscopic binding rates of the antagonists. […]
(In general: The patch-clamp technique gives a direct electrical read-out from membranes.)

In series [3] the test system is Chung model of neuropathic pain (tactile allodynia). Briefly: Chung model of neuropathic pain, tactile antiallodynia effect. It counts as in vivo. To be noted: rats, p.o. The source says: The compounds may be tested for their potential for the treatment of chronic pain (antiallodynic and antihyperalgesic activities) in the Chung model of peripheral neuropathy. Male Sprague-Dawley rats weighing between 200-225 g were anesthetized with halothane (1-3% in a mixture of 70% air and 30% oxygen) and their body temperature controlled during anesthesia through use of a homeothermic blanket. A 2-cm dorsal midline incision was then made at the L5 and L6 level and the para-vertibral muscle groups retracted bilaterally. L5 and L6 spinal nerves were then be exposed, isolated, and tightly ligated with 6-0 silk suture. A sham operation was performed exposing the contralateral L5 and L6 spinal nerves as a negative control.
Tactile Allodynia: Rats were transferred to an elevated testing cage with a wire mesh floor and allowed to acclimate for five to ten minutes. A series of Semmes-Weinstein monofilaments were applied to the plantar surface of the hindpaw to determine the animal's withdrawal threshold. […] This procedure was repeated with subsequent lesser filaments until there was no response and the lightest filament that elicited a response was recorded. […] For each animal, three measurements were made at every time point to produce an average withdrawal threshold determination. Tests were performed prior to and at 1, 2, 4 and 24 hours post drug administration. Tactile allodynia and mechanical hyperalgesia tests were conducted concurrently.
The tactile antiallodynia effect of the compounds listed in Table 4 was tested in the Chung model of neuropathic pain in rats as described above and described by Kim and Chung (Pain 50:355-363 (1992)). […]

Where [4] appears, read: iv, i.v. injection 15 minutes before the test, read-out: MES i.v. ED50.
Where [5] appears, read: po, p.o., 30 minutes before the test, ED50 = dose protecting 50% of animals, read-out: MES p.o. ED50.

Where two headings read alike, the source gives them in different places.

`NC(=O)c1ccnc(-c2ccc(Oc3ccc(Cl)cc3F)cc2)n1` [2-[4-(4-Chloro-2-fluorophenoxy)phenyl]pyrimidine-4-carboxamide]: the median effective dose (ED50) in series [1] (setting [4]) stood at 2.3 mg/kg; in series [1] (setting [5]), 5.7 mg/kg. The Ki in series [2] amounted to 220 nM. For the same compound, the “MED (minimal effective dose)” value in series [3] is 1.25 Mg/kg.

As to `NC(=O)c1ccnc(-c2ccc(Oc3ccc(F)cc3)cc2)n1` [2-[4-(4-Fluorophenoxy)phenyl]pyrimidine-4-carboxamide], the values for the ED50 in series [1] (setting [4]) and in series [1] (setting [5]) were 2.5 mg/kg and 7.5 mg/kg, respectively. In series [2], the Ki stood at 100 nM. Also, in series [3], the “MED (minimal effective dose)” value worked out at 2.50 Mg/kg.

Take `Fc1ccc(Oc2ccc(-c3nccc(-c4nc[nH]n4)n3)cc2)cc1` [2-[4-(4-fluorophenoxy)phenyl]-4-[3-(1,2,4-triazolyl)]pyrimidine]: in series [2], the Ki is 20000 nM.

`NC(=O)c1nc(-c2ccc(Oc3ccccc3)cc2)c(N)nc1N` [3,5-Diamino-6-(4-phenoxyphenyl)pyrazine-2-carboxamide]: the Ki in series [2] stood at 2200 nM.

Regarding `NC(=O)c1nccc(-c2ccc(Oc3ccc(F)cc3F)cc2)n1` [4-[4-(2,4-Difluorophenoxy)phenyl]-pyrimidine-2-carboxamide], the values for the ED50 in series [1] (setting [4]) and in series [1] (setting [5]) were 0.9 mg/kg and 1.4 mg/kg, respectively. Moreover, the Ki in series [2] amounted to 360 nM.

Consider `NC(=O)c1nccc(-c2ccc(Oc3ccc(F)cc3)cc2)n1` [4-[4-(4-Fluorophenoxy)phenyl]-pyrimidine-2-carboxamide], for which the ED50 in series [1] (setting [4]) came to 0.7 mg/kg. Further, the ED50 in series [1] (setting [5]) is 1.6 mg/kg. Moreover, in series [2], the “inhibition of voltage-gated sodium currents” value is listed as “dose-dependent inhibition” and the Ki was found to be 490 nM.

Take `CN(C)C(=O)c1nccc(-c2ccc(Oc3ccc(F)cc3)cc2)n1` [4-[4-(4-Fluorophenoxy)phenyl]-pyrimidine-2-carboxylic acid dimethylamide]: the Ki in series [2] is 13500 nM.

Regarding `CC(C)(C)NC(=O)c1nccc(-c2ccc(Oc3ccc(F)cc3)cc2)n1` [4-[4-(4-Fluorophenoxy)phenyl]-pyrimidine-2-carboxylic acid tert-butylamide], the Ki in series [2] is 180 nM.

As to `O=C(O)c1nccc(-c2ccc(Oc3ccc(F)cc3)cc2)n1` [4-[4-(4-Fluorophenoxy)phenyl]-pyrimidine-2-carboxylic acid], in series [2], the Ki was found to be 51000 nM.

For `NC(=O)c1nccc(-c2ccc(Oc3ccc(C(F)(F)F)cc3)cc2)n1` [4-[4-(4-Trifluoromethylphenoxy)phenyl]-pyrimidine-2-carboxamide], the results for the ED50 in series [1] (setting [4]) and in series [1] (setting [5]) were 0.5 mg/kg and 2.5 mg/kg, respectively. The Ki in series [2] was determined as 210 nM.

As for `NC(=O)c1cccc(-c2ccc(Oc3ccccc3)cc2)n1` [6-(4-Phenoxyphenyl)pyridine-2-carboxamide], the melting point lay within 178 to 180 °C. In addition, the ED50 in series [1] (setting [4]) came out at 3.2 mg/kg. In addition, the ED50 in series [1] (setting [5]) amounted to 10.5 mg/kg.

Regarding `NC(=O)c1cccc(-c2ccc(Oc3ccc(F)cc3)cc2)n1` [6-[4-(4-Fluorophenoxy)phenyl]pyridine-2-carboxamide], the ED50 in series [1] (setting [4]) worked out at 1.2 mg/kg; in series [1] (setting [5]), 3.3 mg/kg. For the same compound, in series [2], the Ki was found to be 70 nM. Moreover, the “MED (minimal effective dose)” value in series [3] was 2.50 Mg/kg.

For orientation: ED50 means the dose at which the effect has come halfway, by size or by number of responders. The melting point is the temperature, or range, at which the solid turns liquid.
